Biological target: T1, AsPC-1 HiBiT-KRASG12D (Homo sapiens, UniProt P01116, G12D)
T1 construct: insert the HiBiT tag onto the N-terminus of one or more of the endogenous KRAS alleles; endogenous in cells; host or cells: AsPC-1 (ATCC CRL-1682), CRISPR-Cas9 knock-in clone, one tagged allele
Test: HiBiT degradation assay (G12D), AsPC-1 HiBiT-KRASG12D cells
Type: cell-based
Conditions: 24 hours treatment; for Dmax: ASPC1, AsPC-1 HiBiT-KRASG12D cells, maximum degradation observed; for DC50: AsPC-1 HiBiT-KRASG12D cells, HiBiT luminescence
Outline: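 In this degradation format, an engineered AsPC-1 clone with HiBiT fused to the KRAS N-terminus is exposed to compounds for 24 hours, after which remaining tagged protein is quantified by lytic HiBiT luminescence.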

T1 sequence (P01116 1-188 isoform P01116-2 G12D): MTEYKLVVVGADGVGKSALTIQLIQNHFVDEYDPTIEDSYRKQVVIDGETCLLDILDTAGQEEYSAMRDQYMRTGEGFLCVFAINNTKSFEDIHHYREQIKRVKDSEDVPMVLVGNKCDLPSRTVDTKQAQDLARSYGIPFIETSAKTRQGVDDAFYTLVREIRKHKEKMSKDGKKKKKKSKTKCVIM

| SMILES | Dmax [%] | DC50 [µM] |
| --- | --- | --- |
| CCc1cccc2cc(O)cc(-c3ncc4c(N5CC6CCC(C5)N6)nc(OCCN5CCC(CC6CN(CC(=O)N[C@H](C(=O)N7C[C@H](O)C[C@H]7C(=O)N[C@@H](C)c7ccc(-c8scnc8C)cc7)C(C)(C)C)C6)CC5)nc4c3F)c12 [Compound 273, (2S,4R)-1-[(2S)-2-(2-{3-[(1-{2-[(4-{3,8-diazabicyclo[3.2.1]octan-3-yl}-7-(8-ethyl-3-hydroxynaphthalen-1-yl)-8-fluoropyrido[4,3-d]pyrimidin-2-yl)oxy]ethyl}piperidin-4-yl)methyl]azetidin-1-yl}acetamido)-3,3-dimethylbutanoyl]-4-hydroxy-N-[(1S)-1-[4-(4-methyl-1,3-thiazol-5-yl)phenyl]ethyl]pyrrolidine-2-carboxamide] | 80 to 100 | < 0.6 |
| CCc1cccc2cc(O)cc(-c3ncc4c(N5CC6CCC(C5)N6)nc(OCCN5CCC(CC6CCN(CC(=O)N[C@H](C(=O)N7C[C@H](O)C[C@H]7C(=O)N[C@@H](C)c7ccc(-c8scnc8C)cc7)C(C)(C)C)CC6)CC5)nc4c3F)c12 [Compound 274, (2S,4R)-1-[(2S)-2-(2-{4-[(1-{2-[(4-{3,8-diazabicyclo[3.2.1]octan-3-yl}-7-(8-ethyl-3-hydroxynaphthalen-1-yl)-8-fluoropyrido[4,3-d]pyrimidin-2-yl)oxy]ethyl}piperidin-4-yl)methyl]piperidin-1-yl}acetamido)-3,3-dimethylbutanoyl]-4-hydroxy-N-[(1S)-1-[4-(4-methyl-1,3-thiazol-5-yl)phenyl]ethyl]pyrrolidine-2-carboxamide] | 60 to 80 | < 0.6 |
| CCc1cccc2cc(O)cc(-c3ncc4c(N5CC6CCC(C5)N6)nc(OCCN5CCC(CC6CN(c7cnc(C(=O)N[C@H](C(=O)N8C[C@H](O)C[C@H]8C(=O)N[C@@H](C)c8ccc(-c9scnc9C)cc8)C(C)(C)C)cn7)C6)CC5)nc4c3F)c12 [Compound 279] | 60 to 80 | < 0.6 |
| CCc1cccc2cc(O)cc(-c3ncc4c(N5CC6CCC(C5)N6)nc(OC[C@@H]5CC[C@@H](COC(=O)N6CCN(c7cc([C@@H](C(=O)N8C[C@H](O)C[C@H]8C(=O)N[C@@H](C)c8ccc(-c9scnc9C)cc8)C(C)C)on7)C[C@@H]6C)N5C)nc4c3F)c12 [Compound 280, [(2S,5S)-5-[[4-(3,8-diazabicyclo[3.2.1]octan-3-yl)-7-(8-ethyl-3-hydroxy-1-naphthyl)-8-fluoro-pyrido[4,3-d]pyrimidin-2-yl]oxymethyl]-1-methyl-pyrrolidin-2-yl]methyl (2S)-4-[5-[(1S)-1-[(2S,4R)-4-hydroxy-2-[[(1S)-1-[4-(4-methylthiazol-5-yl)phenyl]ethyl]carbamoyl]pyrrolidine-1-carbonyl]-2-methyl-propyl]isoxazol-3-yl]-2-methyl-piperazine-1-carboxylate] | 20 to 60 | 0.6 to 1 |
| CCc1cccc2cc(O)cc(-c3ncc4c(N5CCCCCC5)nc(OC[C@]56CCCN5[C@H](COC(=O)N5CCC(Oc7cc([C@@H](C(=O)N8C[C@H](O)C[C@H]8C(=O)N[C@@H](C)c8ccc(-c9scnc9C)cc8)C(C)C)on7)CC5)CC6)nc4c3F)c12 [Compound 282, [(3S,8R)-8-[[4-(azepan-1-yl)-7-(8-ethyl-3-hydroxy-1-naphthyl)-8-fluoro-pyrido[4,3-d]pyrimidin-2-yl]oxymethyl]-1,2,3,5,6,7-hexahydropyrrolizin-3-yl]methyl 4-[5-[(1S)-1-[(2S,4R)-4-hydroxy-2-[[(1S)-1-[4-(4-methylthiazol-5-yl)phenyl]ethyl]carbamoyl]pyrrolidine-1-carbonyl]-2-methyl-propyl]isoxazol-3-yl]oxypiperidine-1-carboxylate] | < 20 | 0.6 to 1 |
| CCc1cccc2cc(O)cc(-c3ncc4c(N5CCCCCC5)nc(OC[C@]56CCCN5[C@H](COC(=O)N5CC7(C5)CN(c5cc([C@H](C(=O)N8C[C@H](O)C[C@H]8C(=O)N[C@@H](C)c8ccc(-c9scnc9C)cc8)C(C)C)on5)C7)CC6)nc4c3F)c12 [Compound 283, [(3S,8R)-8-[[4-(azepan-1-yl)-7-(8-ethyl-3-hydroxy-1-naphthyl)-8-fluoro-pyrido[4,3-d]pyrimidin-2-yl]oxymethyl]-1,2,3,5,6,7-hexahydropyrrolizin-3-yl]methyl 6-[5-[(1R)-1-[(2S,4R)-4-hydroxy-2-[[(1S)-1-[4-(4-methylthiazol-5-yl)phenyl]ethyl]carbamoyl]pyrrolidine-1-carbonyl]-2-methyl-propyl]isoxazol-3-yl]-2,6-diazaspiro[3.3]heptane-2-carboxylate] | 80 to 100 | < 0.6 |
| CCc1cccc2cc(O)cc(-c3ncc4c(N5CCCCCC5)nc(OC[C@]56CCCN5[C@H](COC(=O)N5CC7(C5)CN(c5cc([C@@H](C(=O)N8C[C@H](O)C[C@H]8C(=O)N[C@@H](C)c8ccc(-c9scnc9C)cc8)C(C)C)on5)C7)CC6)nc4c3F)c12 [Compound 284, [(3S,8R)-8-[[4-(azepan-1-yl)-7-(8-ethyl-3-hydroxy-1-naphthyl)-8-fluoro-pyrido[4,3-d]pyrimidin-2-yl]oxymethyl]-1,2,3,5,6,7-hexahydropyrrolizin-3-yl]methyl 6-[5-[(1S)-1-[(2S,4R)-4-hydroxy-2-[[(1S)-1-[4-(4-methylthiazol-5-yl)phenyl]ethyl]carbamoyl]pyrrolidine-1-carbonyl]-2-methyl-propyl]isoxazol-3-yl]-2,6-diazaspiro[3.3]heptane-2-carboxylate] |  | > 3 |
| Cc1ncsc1-c1ccc([C@H](C)NC(=O)[C@@H]2C[C@@H](O)CN2C(=O)[C@@H](c2cc(OC3CN(C(=O)OC[C@@H]4CC[C@@H](COc5nc(N6CC7CCC(C6)N7)c6cnc(-c7cc(O)cc(Cl)c7C7CC7)c(F)c6n5)N4C)C3)no2)C(C)C)cc1 [Compound 285] | 80 to 100 | < 0.6 |
| CCc1cccc2cc(O)cc(-c3ncc4c(N5CCCCCC5)nc(OC[C@]56CCCN5[C@H](COC(=O)N5CCC(Oc7cc([C@H](C(=O)N8C[C@H](O)C[C@H]8C(=O)N[C@@H](C)c8ccc(-c9scnc9C)cc8)C(C)C)on7)CC5)CC6)nc4c3F)c12 [Compound 286, [(3S,8R)-8-[[4-(azepan-1-yl)-7-(8-ethyl-3-hydroxy-1-naphthyl)-8-fluoro-pyrido[4,3-d]pyrimidin-2-yl]oxymethyl]-1,2,3,5,6,7-hexahydropyrrolizin-3-yl]methyl 4-[5-[(1R)-1-[(2S,4R)-4-hydroxy-2-[[(1S)-1-[4-(4-methylthiazol-5-yl)phenyl]ethyl]carbamoyl]pyrrolidine-1-carbonyl]-2-methyl-propyl]isoxazol-3-yl]oxypiperidine-1-carboxylate] | 80 to 100 | < 0.6 |
| Cc1ncsc1-c1ccc([C@H](C)NC(=O)[C@@H]2C[C@@H](O)CN2C(=O)[C@H](c2cc(OC3CN(C(=O)OC[C@@H]4CC[C@@H](COc5nc(N6CC7CCC(C6)N7)c6cnc(-c7cc(O)cc(Cl)c7C7CC7)c(F)c6n5)N4C)C3)no2)C(C)C)cc1 [Compound 287] | < 20 | 1 to 3 |
| CCc1cccc2cc(O)cc(-c3ncc4c(N5CC6CCC(C5)N6)nc(OC[C@@H]5CC[C@@H](COC(=O)N6CCN(c7cc([C@@H](C(=O)N8C[C@H](O)C[C@H]8C(=O)N[C@@H](C)c8ccc(-c9scnc9C)cc8)C(C)C)on7)CC6)N5C)nc4c3F)c12 [Compound 289, [(2S,5S)-5-[[4-(3,8-diazabicyclo[3.2.1]octan-3-yl)-7-(8-ethyl-3-hydroxy-1-naphthyl)-8-fluoro-pyrido[4,3-d]pyrimidin-2-yl]oxymethyl]-1-methyl-pyrrolidin-2-yl]methyl 4-[5-[(1S)-1-[(2S,4R)-4-hydroxy-2-[[(1S)-1-[4-(4-methylthiazol-5-yl)phenyl]ethyl]carbamoyl]pyrrolidine-1-carbonyl]-2-methyl-propyl]isoxazol-3-yl]piperazine-1-carboxylate] | 20 to 60 | 1 to 3 |
| CCc1cccc2cc(O)cc(-c3ncc4c(N5CC6CCC(C5)N6C=O)nc(OCCN5CCC6(CC5)CN(c5cc([C@H](C(=O)N7C[C@H](O)C[C@H]7C(=O)N[C@@H](C)c7ccc(-c8scnc8C)cc7)C(C)C)on5)C6)nc4c3F)c12 [Compound 290, (2S,4R)-1-[(2R)-2-[3-[7-[2-[7-(8-ethyl-3-hydroxy-1-naphthyl)-8-fluoro-4-(8-formyl-3,8-diazabicyclo[3.2.1]octan-3-yl)pyrido[4,3-d]pyrimidin-2-yl]oxyethyl]-2,7-diazaspiro[3.5]nonan-2-yl]isoxazol-5-yl]-3-methyl-butanoyl]-4-hydroxy-N-[(1S)-1-[4-(4-methylthiazol-5-yl)phenyl]ethyl]pyrrolidine-2-carboxamide] |  | > 3 |
| CCc1cccc2cc(O)cc(-c3ncc4c(N5CC6CCC(C5)N6)nc(OC[C@@H]5CC[C@@H](COC(=O)N6CC(Oc7cc([C@@H](C(=O)N8C[C@H](O)C[C@H]8C(=O)N[C@@H](C)c8ccc(-c9scnc9C)cc8)C(C)C)on7)C6)N5C)nc4c3F)c12 [Compound 291] | < 20 | < 0.6 |
| C#Cc1c(F)ccc2cc(O)cc(-c3ncc4c(N5CC6CCC(C5)N6)nc(OC[C@]56CCCN5[C@H](COC(=O)N5CC(Oc7cc([C@H](C(=O)N8C[C@H](O)C[C@H]8C(=O)N[C@@H](C)c8ccc(-c9scnc9C)cc8)C(C)C)on7)C5)CC6)nc4c3F)c12 [Compound 292] | 80 to 100 | < 0.6 |
| CCc1cccc2cc(O)cc(-c3ncc4c(N5CC6CCC(C5)N6)nc(OCCN5CCC(CN6CCN(c7cnc(C(=O)N[C@H](C(=O)N8C[C@H](O)C[C@H]8C(=O)N[C@@H](C)c8ccc(-c9scnc9C)cc8)C(C)(C)C)cn7)CC6)CC5)nc4c3F)c12 [Compound 293] | 60 to 80 | < 0.6 |
| CCc1cccc2cc(O)cc(-c3ncc4c(N5CC6CCC(C5)N6)nc(OC[C@@H]5CC[C@@H](COC(=O)N6CC(Oc7cc([C@H](C(=O)N8C[C@H](O)C[C@H]8C(=O)N[C@@H](C)c8ccc(-c9scnc9C)cc8)C(C)C)on7)C6)N5C)nc4c3F)c12 [Compound 294] | 80 to 100 | < 0.6 |

— US20250206732A1, “COMPOUNDS AND METHODS FOR THE TARGETED DEGRADATION OF KRAS” (Arvinas Operations, Inc., priority 2022, published 2025)
